In brackets after ≈: the same amount, converted by molar mass. Like-named read-outs stand apart in the source and are kept apart here.
Experiments:
[1] = system: MDRAB; assay: MIC determination, microdilution broth method; format: cell-based, Acinetobacter baumannii
Protocol: (§1) Determination methods of a Minimal Inhibitory Concentration (MIC) and a Minimum Bactericidal Concentration (MBC) of a test product: the MIC and the MBC of the Pithecellobium clypearia Benth water or ethanol extract to the MDRAB are determined by a microdilution broth method. And it is operated by referring to the microdilution broth method recommended by National Committee for Clinical Laboratory Standards (NCCLS).

[2] = system: ATCC25922; assay: MIC determination, control strain ATCC25922; format: cell-based; conditions: EA = 95% ethanol extract
[3] = system: ATCC25922; assay: MIC determination, control strain; format: cell-based
[4] = system: ESBL-producing ECO; assay: MIC determination, microdilution broth method; format: cell-based, Escherichia coli
Protocol: as §1
By determining the MIC and the MBC of the drug and making statistics of the data to obtain MIC50, MIC90, MBC50 and MBC90, the effect of the MDRA resistance of the drug is evaluated.

[5] = system: ESBL-producing ECO; assay: Checkerboard assay (combined-use MIC, FIC); format: cell-based, Escherichia coli; conditions: 20 ESBL-producing ECOs
Protocol: Test methods of the sensibilization effects of the test product to similar antibiotics: it is operated by referring to a checkerboard assay recommended by NCCLS.
The checkerboard assay is performed in a 96-pore sterile culture plate.
Calculation of a Fractional Inhibitory Concentration (FIC): FIC=S20b combined-use MIC/S20b single-use MIC+antibiotic combined-use MIC/antibiotic single-use MIC. By calculating the FIC, the combined antibacterial interaction between the EA and the antibiotic is evaluated, with synergistic effect for FIC≤0.5, additive effect for 0.5<FIC≤1, indifferent effect for 1<FIC≤2 and antagonistic effect for FIC>2. According to a sterile growth pore, the optimum concentration ratio between the EA and the antibiotic is founded out. At last, the effect of the EA to strengthen the efficacy of the antibiotic is evaluated.

[6] = single use, 20 MDRABs, EA=10% ethanol extract
[7] = single use, 20 MDRABs, EA=water extract
[8] = single use, 20 MDRABs, section of the 95% ethanol extract
[9] = EA = 10% ethanol extract, 20 ESBL-producing ECO strains
[10] = EA = 60% ethanol extract, 20 ESBL-producing ECO strains
[11] = EA = 95% ethanol extract, ESBL-producing ECOs
[12] = EA = water extract, 20 ESBL-producing ECO strains
[13] = single use, 20 ESBL-producing ECOs, section of the 10% ethanol extract
[14] = single use, 20 ESBL-producing ECOs, section of the 60% ethanol extract
[15] = single use, 20 ESBL-producing ECOs, section of the 95% ethanol extract
[16] = antibiotic with 10% ethanol extract
[17] = antibiotic with 60% ethanol extract
[18] = antibiotic with 95% ethanol extract

## CC(C)(O/N=C(\C(=O)N[C@@H]1C(=O)N2C(C(=O)[O-])=C(C[n+]3ccccc3)CS[C@H]12)c1csc(N)n1)C(=O)O [CAZ, Ceftazidime]
[1]; Acinetobacter baumannii, strain A1, EA=P. clypearia 95% ethanol extract, read-out: single-use MIC
  MIC: 128 µg/mL (≈ 234 µM)
[1]; Acinetobacter baumannii, strain A2, EA=P. clypearia 95% ethanol extract, read-out: single-use MIC
  MIC: 512 µg/mL (≈ 937 µM)
[1]; Acinetobacter baumannii, strain A3, EA=P. clypearia 95% ethanol extract, read-out: single-use MIC
  MIC: 512 µg/mL (≈ 937 µM)
[1]; Acinetobacter baumannii, strain A4, EA=P. clypearia 95% ethanol extract, read-out: single-use MIC
  MIC: 256 µg/mL (≈ 468 µM)
[1]; Acinetobacter baumannii, strain A5, EA=60% ethanol extract, read-out: MIC
  MIC: 64 µg/mL (≈ 117 µM)
[1]; Acinetobacter baumannii, strain A5, EA=95% ethanol extract, read-out: MIC
  MIC: 64 µg/mL (≈ 117 µM)
[1]; Acinetobacter baumannii, strain A5, EA=P. clypearia 95% ethanol extract, read-out: single-use MIC
  MIC: 64 µg/mL (≈ 117 µM)
[1]; Acinetobacter baumannii, strain A5, single use, EA=10% ethanol extract, read-out: MIC
  MIC: 64 µg/mL (≈ 117 µM)
[1]; Acinetobacter baumannii, strain A5, single use, EA=water extract, read-out: MIC
  MIC: 64 µg/mL (≈ 117 µM)
[1]; Acinetobacter baumannii, strain A6, EA=60% ethanol extract, read-out: MIC
  MIC: > 512 µg/mL
[1]; Acinetobacter baumannii, strain A6, EA=95% ethanol extract, read-out: MIC
  MIC: > 512 µg/mL
[1]; Acinetobacter baumannii, strain A6, EA=P. clypearia 95% ethanol extract, read-out: single-use MIC
  MIC: 1020 µg/mL (≈ 1870 µM)
[1]; Acinetobacter baumannii, strain A6, single use, EA=10% ethanol extract, read-out: MIC
  MIC: > 512 µg/mL
[1]; Acinetobacter baumannii, strain A6, single use, EA=water extract, read-out: MIC
  MIC: > 512 µg/mL
[1]; Acinetobacter baumannii, strain A7, EA=60% ethanol extract, read-out: MIC
  MIC: > 512 µg/mL
[1]; Acinetobacter baumannii, strain A7, EA=95% ethanol extract, read-out: MIC
  MIC: > 512 µg/mL
[1]; Acinetobacter baumannii, strain A7, EA=P. clypearia 95% ethanol extract, read-out: single-use MIC
  MIC: 1020 µg/mL (≈ 1870 µM)
[1]; Acinetobacter baumannii, strain A7, single use, EA=10% ethanol extract, read-out: MIC
  MIC: > 512 µg/mL
[1]; Acinetobacter baumannii, strain A7, single use, EA=water extract, read-out: MIC
  MIC: > 512 µg/mL
[1]; Acinetobacter baumannii, strain A8, EA=P. clypearia 95% ethanol extract, read-out: single-use MIC
  MIC: 512 µg/mL (≈ 937 µM)
[1]; Acinetobacter baumannii, strain A9, EA=P. clypearia 95% ethanol extract, read-out: single-use MIC
  MIC: 512 µg/mL (≈ 937 µM)
[1]; Acinetobacter baumannii, strain A10, EA=P. clypearia 95% ethanol extract, read-out: single-use MIC
  MIC: 512 µg/mL (≈ 937 µM)
[1]; Acinetobacter baumannii, strain A11, EA=P. clypearia 95% ethanol extract, read-out: single-use MIC
  MIC: 512 µg/mL (≈ 937 µM)
[1]; Acinetobacter baumannii, strain A12, EA=P. clypearia 95% ethanol extract, read-out: single-use MIC
  MIC: 512 µg/mL (≈ 937 µM)
[1]; Acinetobacter baumannii, strain A13, EA=P. clypearia 95% ethanol extract, read-out: single-use MIC
  MIC: 256 µg/mL (≈ 468 µM)
[1]; Acinetobacter baumannii, strain A14, EA=P. clypearia 95% ethanol extract, read-out: single-use MIC
  MIC: 512 µg/mL (≈ 937 µM)
[1]; Acinetobacter baumannii, strain A15, EA=P. clypearia 95% ethanol extract, read-out: single-use MIC
  MIC: 256 µg/mL (≈ 468 µM)
[1]; Acinetobacter baumannii, strain A16, EA=P. clypearia 95% ethanol extract, read-out: single-use MIC
  MIC: 512 µg/mL (≈ 937 µM)
[1]; Acinetobacter baumannii, strain A17, EA=P. clypearia 95% ethanol extract, read-out: single-use MIC
  MIC: 256 µg/mL (≈ 468 µM)
[1]; Acinetobacter baumannii, strain A18, EA=P. clypearia 95% ethanol extract, read-out: single-use MIC
  MIC: 512 µg/mL (≈ 937 µM)
[1]; Acinetobacter baumannii, strain A19, EA=P. clypearia 95% ethanol extract, read-out: single-use MIC
  MIC: 256 µg/mL (≈ 468 µM)
[1]; Acinetobacter baumannii, strain A20, EA=P. clypearia 95% ethanol extract, read-out: single-use MIC
  MIC: 512 µg/mL (≈ 937 µM)
[1]; Acinetobacter baumannii, single use, 20 MDRABs, section of the 60% ethanol extract, read-out: MIC50
  MIC50: 512 µg/mL (≈ 937 µM)
[1]; Acinetobacter baumannii, single use, 20 MDRABs, section of the 60% ethanol extract, read-out: MIC90
  MIC90: 512 µg/mL (≈ 937 µM)
[1]; MDRABs, EA=60% ethanol extract
  MIC50: 512 µg/mL (≈ 937 µM)
  MIC90: 512 µg/mL (≈ 937 µM)
  MIC Range: 64 to 512 µg/mL
[1]; MDRABs, EA=95% ethanol extract
  MIC50: 512 µg/mL (≈ 937 µM)
  MIC90: 512 µg/mL (≈ 937 µM)
  MIC Range: 64 to 512 µg/mL
[1]; [6]
  MIC50: 512 µg/mL (≈ 937 µM)
  MIC90: 512 µg/mL (≈ 937 µM)
  MIC Range: 64 to 512 µg/mL
[1]; [7]
  MIC50: 512 µg/mL (≈ 937 µM)
  MIC90: 512 µg/mL (≈ 937 µM)
  MIC Range: 64 to 512 µg/mL
[1]; [8]
  MIC50: 512 µg/mL (≈ 937 µM)
  MIC90: 512 µg/mL (≈ 937 µM)
[1]; strain A6, single use, EA=10% ethanol extract
  MIC: 1024 µg/mL (≈ 1870 µM)
[1]; strain A6, single use, EA=water extract
  MIC: 1024 µg/mL (≈ 1870 µM)
[1]; strain A7, single use, EA=10% ethanol extract
  MIC: 1024 µg/mL (≈ 1870 µM)
[1]; strain A7, single use, EA=water extract
  MIC: 1024 µg/mL (≈ 1870 µM)

## NCC[C@H](O)C(=O)N[C@@H]1C[C@H](N)[C@@H](O[C@H]2O[C@H](CN)[C@@H](O)[C@H](O)[C@H]2O)[C@H](O)[C@H]1O[C@H]1O[C@H](CO)[C@@H](O)[C@H](N)[C@H]1O [AMK, Amikacin]
[2]
  MIC: 4 µg/mL (≈ 6.83 µM)
[3]; EA = 10% ethanol extract
  MIC: 4 µg/mL (≈ 6.83 µM)
[3]; EA = 60% ethanol extract
  MIC: 4 µg/mL (≈ 6.83 µM)
[3]; EA = water extract, read-out: MIC
  MIC: 4 µg/mL (≈ 6.83 µM)
[4]; [9]
  MIC50: 16 µg/mL (≈ 27.3 µM)
  MIC90: 64 µg/mL (≈ 109 µM)
  MIC Range: 4 to 512 µg/mL
[4]; [10]
  MIC50: 16 µg/mL (≈ 27.3 µM)
  MIC90: 64 µg/mL (≈ 109 µM)
  MIC Range: 4 to 512 µg/mL
[4]; [11]
  MIC50: 16 µg/mL (≈ 27.3 µM)
  MIC90: 64 µg/mL (≈ 109 µM)
  MIC Range: 4 to 512 µg/mL
[4]; [12]
  MIC50: 16 µg/mL (≈ 27.3 µM)
  MIC90: 64 µg/mL (≈ 109 µM)
  MIC Range: 4 to 512 µg/mL
[4]; Escherichia coli
  MIC: 128 µg/mL (≈ 219 µM)
[4]; Escherichia coli, single use, 20 ESBL-producing ECOs, section of the water extract, read-out: MIC50
  MIC50: 16 µg/mL (≈ 27.3 µM)
[4]; Escherichia coli, single use, 20 ESBL-producing ECOs, section of the water extract, read-out: MIC90
  MIC90: 64 µg/mL (≈ 109 µM)
[4]; [13]
  MIC50: 16 µg/mL (≈ 27.3 µM)
  MIC90: 64 µg/mL (≈ 109 µM)
[4]; [14]
  MIC50: 16 µg/mL (≈ 27.3 µM)
  MIC90: 64 µg/mL (≈ 109 µM)
[4]; [15]
  MIC50: 16 µg/mL (≈ 27.3 µM)
  MIC90: 64 µg/mL (≈ 109 µM)
[5]; [16]
  FIC, all strains: ≤ 2
  MIC50 of the antibiotic after combined use: 4 µg/mL
  MIC90 of the antibiotic after combined use: 16 µg/mL
  reduction of the antibiotic's MIC50 vs single use: 75%
  reduction of the antibiotic's MIC90 vs single use: 75%
  share of strains with FIC ≤ 0.5: 50%
[5]; [17]
  FIC, all strains: ≤ 2
  MIC50 of the antibiotic after combined use: 4 µg/mL
  MIC90 of the antibiotic after combined use: 8 µg/mL
  reduction of the antibiotic's MIC50 vs single use: 75%
  share of strains with FIC ≤ 0.5: 70%
[5]; [18]
  FIC, all strains: ≤ 2
  MIC50 of the antibiotic after combined use: 4 µg/mL
  MIC90 of the antibiotic after combined use: 16 µg/mL
  reduction of the antibiotic's MIC50 vs single use: 75%
  reduction of the antibiotic's MIC90 vs single use: 75%
  share of strains with FIC ≤ 0.5: 50%
[5]; antibiotic with water extract
  FIC, all strains: ≤ 2
  MIC50 of the antibiotic after combined use: 4 µg/mL
  MIC90 of the antibiotic after combined use: 16 µg/mL
  reduction of the antibiotic's MIC50 vs single use: 75%
  reduction of the antibiotic's MIC90 vs single use: 75%
  share of strains with FIC ≤ 0.5: 50%
